According to US20100130737A1, “Regulating Agent of GPR34 Receptor Function” (TAKEDA PHARMACEUTICAL COMPANY LIMITED, priority 2005, published 2010):

Assays:
Assay type in all cases: cell-based
[1] = tested on: rat peritoneal mast cells; assay: Degranulation inhibiting activity in rat peritoneal mast cells (β-hexosaminidase release); conditions: 100 ng/ml DNP-BSA stimulus + 3 μM lysoPS added simultaneously
Protocol: Ice-cooled mast cell medium (hereunder called MCM: 150 mM NaCl, 3.7 mM KCl, 3.0 mM NaH2PO4, 3.5 mM KH2PO4, 5.6 mM (D)-Glucose, 0.1% bovine serum albumin (BSA), 0.1% gelatin, 10 U/ml heparin, pH 6.8) was injected intraperitoneally into rats, about 40 ml per rat, the abdomens were massaged for about 2 minutes and then opened along the median line, and ascites was collected. The collected ascites were filtered with a cell strainer (Becton Dickinson) and centrifuged for 7 minutes at 50×g, and the precipitated cells were suspended in MCM and then centrifuged again for 7 minutes at 50×g. The precipitated cells were suspended in 5 ml of MCM, layered over 2 ml of 32% (w/v) BSA solution (dissolved in 0.9% NaCL), and left for 20 minutes at room temperature. This was centrifuged for 15 minutes at room temperature at 300×g, the cells between the MCM and BSA solution were discarded, and the precipitated cells were suspended in MCM and washed twice by being centrifuged for 5 minutes at 300×g. The precipitated cells were suspended in assay buffer (150 mM NaCl, 3.7 mM KCl, 3.0 mM NaH2PO4, 3.5 mM KH2PO4, 0.9 mM CaCl2, 5.6 mM (D)-Glucose, 0.01% BSA, pH 6.8), and these cells were used in the following test.
RPMC cells suspended in assay buffer were passively sensitized by adding 10 μg/ml of monoclonal mouse anti-DNP-IgE (Seikagaku) and leaving them for 30 minutes on ice. After 5 minutes of centrifugation at 300×g, the precipitated cells were washed 3 times with assay buffer. The RPMC cells suspended in assay buffer were dispensed on 96-well V-bottom plates, 2×10^4 cells per well. The assay was performed with n=3 under each set of reaction conditions. The plates were maintained for 5 minutes at 37° C., the test compound was added, and after 15 minutes lysoPS (Sigma) was added to a final concentration of 3 μM and DNP-BSA (Calbiochem) to a final concentration of 100 ng/ml for a final capacity of 200 and left on a water bath at 37° C. After 20 minutes, the plate was ice cooled to stop RPMC activation, followed by 5 minutes of centrifugation at 300×g, and β-hexosaminidase activity in the supernatant was measured using 4-methylumbelliferyl-2-acetamido-2-deoxy-β-D-glucopyranoside (Wako Pure Chemical) degradation as the indicator.

[2] = tested on: rat peritoneal mast cells; assay: as above
human GPR34 [3] = molecular target: T1, human GPR34 (Homo sapiens, UniProt Q9UPC5); assay: Human GPR34 antagonist activity as indicated by cAMP in human GPR34-expressing CHO cells; design: expressed in transfected cells
Protocol: Human GPR34-expressing CHO cells were maintained in nucleic acid-free MEM-a (Invitrogen) containing 10% dialyzed FBS (Invitrogen) and penicillin and streptomycin (BioWhittaker) (hereunder described as culture medium), and on the day before assay the cells were stripped with trypsin/EDTA (Invitrogen), centrifuged, re-suspended in culture medium and seeded 2×10^5 per well, 1 ml/well on a 24-well plate (Nunc). The seeded cells were cultured overnight at 37° C. in a CO2 incubator, and subjected to cAMP assay the next day.
The plate was washed twice, 500 μL/well with Hank's balanced salt solution (HBSS, Invitrogen) containing 20 mM HEPES (1 M HEPES solution, Dojindo) with 0.2 mM 3-isobutyl-1-methylxanthine (IBMX, Wako Pure Chemical) added thereto (hereunder described as assay buffer (HBSS+HEPES-FIBMX)), and kept warm for 30 minutes in a water bath at 37° C. Next, 250 μL of assay buffer (HBSS+HEPES+IBMX) was substituted, and the plate was kept for a further 15 minutes in a water bath at 37° C. 2 μl of GPR34 antagonist compound solution at 250× the final concentration was added and gently stirred with a plate mixer, 2 μL, of lysoPS (Sigma or Alexis) at 250× the final concentration and 5 μM (2× the final concentration) of Forskolin (Wako Pure Chemical) were added, and 250 μL, of assay buffer (HBSS+HEPES+IBMX) was added and reacted for 30 minutes in a water bath at 37° C. In the case of the human GPR34-expressing CHO cells, 2 μL of 50 μM lysoPS was added so that the final concentration would be roughly the EC50 value of 0.2 μM. After completion of the reaction, intracellular cAMP was detected by competitive EIA using a cAMP Screen System (Applied Biosystems). After completion of the assay, 200 μL, of the Assay/lysis buffer for the cAMP Screen System was substituted, and intracellular cAMP was extracted by maintaining the cells for about 40 minutes at 37° C. EIA was then performed in accordance with the cAMP Screen Systems protocols to assay intracellular cAMP.
Relative percentage values were calculated by Microsoft Excel with the cAMP level with only assay buffer (HBSS+HEPES+IBMX) added (“None” in the table) given as 0%, and the cAMP level with the final concentration 2.5 μM Forskolin added given as 100%.

human GPR34 [4] = molecular target: T1, human GPR34; assay: Reactivity of human GPR34CHO cell strain stably expressing Gα16 to lysophosphatidyl serine (FLIPR); design: expressed in transfected cells; host or cells: CHO cells (human GPR34CHO line) stably transfected with pCR3.1 human lung Gα16; conditions: Fluo 3-AM, 3 minutes after addition; concentration-dependent
Protocol: The reactivity of the human GPR34CHO cell strain stably expressing Gα16 to lysophosphatidyl serine (lysoPS) was investigated by the FLIPR (Molecular Devices) assay method. The fluorescent calcium indicator Fluo 3-AM (Wako Pure Chemical) was incorporated into the human GPR34CHO cell strain stably expressing Gα16, and the cells were washed with assay buffer. Various concentrations of 50 μl lysophosphatidyl serine solution were added to cells immersed in 100 μl of assay buffer, and the intracellular fluorescent strength 3 minutes after addition was measured by FLIPR.

T1 sequence (Q9UPC5 whole entry): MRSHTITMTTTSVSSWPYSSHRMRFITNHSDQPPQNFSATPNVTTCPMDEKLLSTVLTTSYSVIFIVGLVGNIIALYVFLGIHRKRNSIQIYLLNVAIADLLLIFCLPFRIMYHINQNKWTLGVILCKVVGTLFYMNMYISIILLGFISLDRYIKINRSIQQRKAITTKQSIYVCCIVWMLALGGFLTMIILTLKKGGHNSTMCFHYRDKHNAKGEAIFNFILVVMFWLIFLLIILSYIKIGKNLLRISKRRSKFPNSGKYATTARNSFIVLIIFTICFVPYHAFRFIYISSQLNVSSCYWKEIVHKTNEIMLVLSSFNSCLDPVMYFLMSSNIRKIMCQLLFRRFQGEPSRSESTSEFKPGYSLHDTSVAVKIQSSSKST

## lisophosphatidylserine [lysoPS]
[1]
  RPMC degranulation: 36.7%
[2]; 100 ng/ml DNP-BSA stimulus + 0.1 μM lysoPS added simultaneously
  RPMC degranulation: 8.4%
[2]; 100 ng/ml DNP-BSA stimulus + 0.3 μM lysoPS added simultaneously
  RPMC degranulation: 14.7%
[2]; 100 ng/ml DNP-BSA stimulus + 1 μM lysoPS added simultaneously
  RPMC degranulation: 26.0%
[2]; 100 ng/ml DNP-BSA stimulus + 10 μM lysoPS added simultaneously
  RPMC degranulation: 45.2%
Human GPR34 [3]; 0.2 μM LysoPS + 2.5 μM Forskolin, buffer only = 0%, 2.5 μM Forskolin = 100%
  cAMP (%): 43%
Human GPR34 [3]; human GPR34-expressing CHO cells, cAMP assay, read-out: EC50 value of lysoPS
  EC50: ~0.2 µM

## lysophosphatidyl serine
Human GPR34 [4]
  intracellular fluorescent strength (intracellular calcium), in words: caused a rise in intracellular fluorescent strength
